Read-outs that look alike come from different tables or passages of the source. Ends that are not written are not given here.
How the values were obtained:
LX 2 cells [1] = assay: Apparent equilibrium dissociation constant (Kd) on LX 2 cells; assay type: binding, human
Method: (§1) We next measured the apparent equilibrium dissociation constants (Kd) of the peptides (422, 425, 431, and 515) to LX 2 and HSC T6 cells as shown in FIG. 10A and FIG. 10B, respectively. The cells were incubated with 5 FAM labeled peptides at different concentrations for 1 h at 37° C. The labeled cells were detected by flow cytometry, and the apparent Kd value was calculated using GraphPad Prism. […] The result is consistent with the cellular uptake result depicted in FIGS. 7A-7B, 8A-8G, and 9A-9G.
In order to improve the binding affinity of peptide 431, […] may have the molecular structure depicted in FIG. 16A. Affinity of the dimeric peptide 431 was evaluated in LX 2 cells as described above.

LX 2 cells [2] = assay: Serum protein binding study: uptake in LX 2 cells in media containing FBS; assay type: cell-based, human; settings: LX 2, OptiMEM and DMEM with FBS up to 10%
Text: It is important to evaluate the stability of peptides in the presence of serum proteins, which may nonspecifically bind to IGF2R specific peptides. As a result, we evaluated the cellular uptake of 5 FAM labeled peptide 431 in LX 2 cells in the serum reduced medium OptiMEM and DMEM media containing different concentrations of FBS.

[3] = test system: human hepatic stellate cells LX 2; assay: Cellular uptake of 5 FAM labeled peptides in LX 2 cells (flow cytometry); assay type: cell-based; settings: for binding affinity compared to the control peptide and other selected peptides: LX 2 cells
Method: (§2) We examined cellular uptake of 5 FAM labeled peptides (425, 431, and 515) in human hepatic stellate cells LX 2 upon treatment with nonenzymatic cell dissociation solution and trypsin. […] We also evaluated the effect of incubation time on cellular uptake of the peptides. 5 FAM labeled peptide 431 was incubated with LX 2 cells for different incubation time points. […] Therefore, nonenzymatic cell dissociation solution and 1 h incubation time were selected to evaluate all the peptides (420, 422, 425, 431, 504, and 515) in human hepatic stellate cells LX 2 and rat hepatic stellate cells HSC T6.

HSC-T6 cells = assay: Cellular uptake of siRNA nanocomplexes in HSC-T6 cells; assay type: cell-based, rat; settings: siRNA nanocomplex modified with Peptide-431 (SNPP) versus free siRNA, SNCP, SNVP, 50 nM siRNA
Method: (§3) The siRNA was labeled with Alexa Flour-647, and the nanocomplexes were prepared using neutravidin as we reported before. Approximately 100,000 cells (HSC-T6, LX-2)/well were seed into 24 well plate and incubator at 37 C for 12 hrs, free siRNA and nanocomplexes (SNCP, SNVP, SNPP) were then incubated with the cells at a final siRNA concentration of 50 nM. The fluorescence intensity of the cells at different intervals was detected by FACSCalibur Flow Cytometry (BD Biosciences, Franklin Lakes, N.J.). FIG. 17A depicts an evaluation of the cellular uptake of free siRNA and the nanocomplexes in HSC-T6 cells, and FIG. 17B depicts an evaluation of the cellular uptake of free siRNA and the nanocomplexes in LX-2 cells.

IGF2R [4] = molecular target: T1, IGF2R (Homo sapiens, UniProt P11717); assay: Specificity of peptide 431 to IGF2R: uptake in IGF2R-silenced LX 2 cells; assay type: cell-based; parameters: the expression of IGF2R in LX 2 cells was silenced using siRNA; endogenous in cells; host or cells: LX-2 human hepatic stellate cells; settings: for cellular uptake after silencing IGF2R with siRNA: LX 2, IGF2R siRNA versus scrambled siRNA
Method: In addition to affinity, we also evaluated the specificity of peptide 431 to IGF2R in LX 2 cells. For this purpose, the expression of IGF2R in LX 2 cells was silenced using siRNA As shown in FIGS. 11A-11B, the IGF2R siRNA (10 and 50 nM) dramatically knocked down the expression of IGF2R in LX 2 cells at the mRNA and protein levels.

HSC T6 cells [5] = assay: Apparent equilibrium dissociation constant (Kd) on HSC T6 cells; assay type: binding, rat; settings: 5 FAM labeled peptide, 1 h at 37° C., flow cytometry
Method: as §1

HSCs = assay: Biodistribution of siRNA nanocomplexes in rats and rats with liver fibrosis; assay type: in vivo, rat; settings: siRNA modified with Peptide-431 versus other delivery systems; tail vein, 0.065 mg/kg siRNA, 2 hrs
Method: The siRNA was labeled with Alexa Flour-647, and the nanocomplexes were prepared using neutravidin as we reported before. The free siRNA and nanocomplexes (SNCP, SNVP, SNPP) were injected into rats by tail vein at an siRNA dose of 0.065 mg/kg. After 2 hrs, the rats were sacrificed and the major organs including the liver, heart, lung, spleen, muscle, kidney, and blood were harvested for fluorescence imaging using a Xenogen IVIS imaging system.
The siRNA was labeled with Alexa Flour-647, and the nanocomplexes were prepared using neutravidin as we reported before. Liver fibrosis was inducted by injection of CCl4. The free siRNA and nanocomplexes (SNCP, SNVP, SNPP) were injected into rats with liver fibrosis by tail vein at an siRNA dose of 0.065 mg/kg. After 2 hrs, the rats were sacrificed and the major organs including the liver, heart, lung, spleen, muscle, kidney, and blood were harvested for fluorescence imaging using a small animal imaging system (Brunker MS FX Pro). FIG. 19 depicts images evaluating the biodistribution of free siRNA and the nanocomplexes in Rats with liver fibrosis.

LX 2 cells [6] = assay: Cell viability (MTT) / apoptotic effect in LX 2 cells; assay type: cell-based, human
Method: (§4) LX 2 and HSC T6 (1×10^4 cells per well) cells were cultured in 96 well plates for 12 h in DMEM medium containing 10% FBS. The peptide 431/KLA fusion peptide, the mixture of peptide 431 and KLA peptide, and KIA peptide were incubated with the cells for 48 h. Cell viability was measured using MTT (3 (4,5 dimethylthiazol2 yi) 2,5 diphenyltetrazolium bromide) assay.
(§5) The proapoptotic peptide having the sequence of SEQ ID NO: 13, KLAKLAKKLAKLAK (KLA), is able to trigger mitochondrial disruption and induce cell death. However, the KLA peptide itself cannot enter cells to exert its proapoptotic activity. We therefore prepared a KLA/peptide 431 fusion peptide and examined its proapoptotic activity in LX 2 and HSC T6 cells.

LX-2 cells = assay: Cellular uptake of siRNA nanocomplexes in LX-2 cells; assay type: cell-based, human; settings: siRNA nanocomplex modified with Peptide-431 (SNPP) versus free siRNA, SNCP, SNVP, 50 nM siRNA
Method: as §3

[7] = test system: rat hepatic stellate cells HSC T6; assay: Cellular uptake of 5 FAM labeled peptides in HSC T6 cells (flow cytometry); assay type: cell-based; settings: 1 h incubation; for binding affinity compared to the control peptide and other selected peptides: HSC T6 cells
Method: as §2

HSC T6 cells [8] = assay: Cell viability (MTT) / apoptotic effect in HSC T6 cells; assay type: cell-based, rat; settings: HSC-T6, fused to peptide-431
Method: as §4, §5

IGF2R [9] = molecular target: T1, IGF2R; assay: Phage ELISA on recombinant human IGF2R protein; assay type: binding; parameters: conducted using recombinant human IGF2R extracellular domain protein (the first, third, and fifth rounds); settings: compared to peptide insertless control phage and other selected clones
Method: The binding affinity of the twenty-eight phages was evaluated by ELISA on recombinant human IGF2R protein. […] Additionally, the particular embodiment may include more specific aspects related to the materials and techniques employed by this method, which are described with more detail in the Experiment section below.
Twenty eight phage clones were randomly selected after the fourth and fifth rounds of biopanning and cultured in 1 mL of ER2738 bacteria (growing in early stage) at 37° C. for 4.5 h. Phage DNA was extracted, purified using the DNA clean system (Promega, Madison, Wis.), and then sequenced with an ABI Genetic Analyzer 3100 (Applied Biosystems, USA). The primer used for sequencing is SEQ ID NO: 14, 5′-CCCTCATAGTTAGCGTA ACG-3′. […] One of the phages was peptide insertless. In FIG. 3B, binding affinity of the selected phage clones encoding inserted peptides was evaluated by ELISA on recombinant human IGF2R protein.

“dimeric peptide 431: dimer of Peptide-431 linked via a lysine, imaging agent coupled to the linker (FIG. 16A) (VHWDFRQWWQPS; also: dimer of two peptide chains linked via a lysine, imaging agent coupled to the linker)” was tested, and the “improvement of binding affinity (Kd) of dimer compared to monomeric peptide 431” value (LX 2 cells [1]) was “approximately 9 fold” and the “improvement of binding affinity (Kd) of dimer compared to monomeric peptide 431” value (LX 2 cells [1]; listed as Dimerization of peptide-431) was “approximately 9 fold”.

“VHWDFRQWWQPS [Peptide-431, IGF2R-specific peptide ligand encoded by phage 431]” was tested, and the “cellular uptake in presence of FBS” value (LX 2 cells [2]) was “not significantly affected”, the cellular uptake ([3]; 5 FAM labeled peptide, nonenzymatic cell dissociation solution, 1 h incubation, LX 2) was 62% and the “effect of incubation time on cellular uptake” value ([3]; LX 2, different incubation time points) was “time dependent increase”. The “binding affinity compared to the control peptide and other selected peptides” value ([3]; 1 h incubation) was “highest binding affinity”, the “binding affinity compared to the control peptide and other selected peptides” value ([3]; 1 h incubation, listed as Phage No. 431) was “greatest binding affinity” and the “effect of cell detachment method on cellular uptake” value ([3]; nonenzymatic cell dissociation solution versus trypsin, LX 2) was “higher cellular uptake in nonenzymatic cell dissociation solution”. The “cellular uptake of siRNA” value (HSC-T6 cells) was “highest cellular uptake of siRNA”, the “cellular uptake after silencing IGF2R with siRNA” value (IGF2R [4]; listed as peptide 431) was “lower uptake” and the “cellular uptake after silencing IGF2R with siRNA” value (IGF2R [4]; listed as peptide-431) was “significantly reduced”. For the same substance, the “specificity to IGF2R on LX 2 cells” value (IGF2R [4]; concluded from IGF2R silencing) was “high specificity”, the Kd (HSC T6 cells [5]) was 12.3 µM and the “specificity for HSCs (biodistribution)” value (HSCs) was “highest specificity for HSCs”. The “uptake of proapoptotic KLA peptide” value (LX 2 cells [6]; LX-2, fused to peptide-431) was “enhances the uptake”, the “cellular uptake of siRNA” value (LX-2 cells) was “highest cellular uptake of siRNA” and the cellular uptake ([7]; 5 FAM labeled peptide, nonenzymatic cell dissociation solution, HSC T6) was 12%. The “binding affinity compared to the control peptide and other selected peptides” value [7] was “highest binding affinity”, the “binding affinity compared to the control peptide and other selected peptides” value ([7]; listed as Phage No. 431) was “greatest binding affinity” and the “uptake of proapoptotic KLA peptide” value (HSC T6 cells [8]) was “enhances the uptake”. The “binding affinity to recombinant human IGF2R protein (phage ELISA)” value (IGF2R [9]) was “highest binding affinity” and the “binding affinity to recombinant human IGF2R protein (phage ELISA)” value (IGF2R [9]; listed as peptide-431) was “highest binding affinity and specificity”.

With “KLAKLAKKLAKLAK (proapoptotic peptide) [KLA peptide, reference compound]” the “apoptotic activity / cell death” value (LX 2 cells [6]; LX 2, 48 h, MTT) was “did not exhibit apoptotic activity”.
